According to US8486986B2, “Microbiocides” (Syngenta Crop Protection LLC, priority 2007, dated 2013):

For CC(Cc1c(-c2ccc(F)cc2)sc(Cl)c1Cl)NC(=O)c1cn(C)nc1C(F)(F)F (stereo not shown) [Compound 7.72, 1-methyl-3-trifluoromethyl-1H-pyrazole-4-carboxylic acid {2-[4,5-dichloro-2-(4-fluorophenyl)-thiophen 3-yl]1-methylethyl}amide], the melting point was 126 to 130 °C.
